Results published in patent US11053221B2, “Substituted pyrimidines for inhibiting embryonic leucine zipper kinase activity” (Arrien Pharmaceuticals LLC, priority 2018, dated 2021).
Counter-ions that a name gives are not always drawn.

Legend:
MELK = biological target: T1, MELK (Homo sapiens, UniProt Q14680); test: HotSpot kinase assay, MELK; format: biochemical; conditions: HotSpot radiometric 33P ATP assay, 25° C., 120 min
T1 construct: purchased Reaction Biology Corporation
Method: (§1) In vitro profiling of the MELK, MELK (T460M) kinase panel was performed at Reaction Biology Corporation using the “HotSpot” assay platform. In vitro profiling of the FLT3, FLT3 mutant forms; FLT3 (D835Y), FLT3 (F594R595insR), FLT3 (F594R595insREY), FLT3 (ITD), FLT3 (ITD)-NPOS, FLT3 (ITD)-W51 and FLT3 (R595_E596insEY) kinase panel is performed in the same manner.
(§2) Briefly, specific kinase/substrate pairs along with required cofactors were prepared in reaction buffer; 20 mM Hepes (pH 7.5), 10 mM MgCl2, 1 mM EGTA, 0.02% Brij35, 0.02 mg/mL BSA, 0.1 mM Na3VO4, 2 mM DTT, 1% DMSO. Compounds were delivered into the reaction, followed ˜20 min later by addition of a mixture of ATP (Sigma) and ^33P ATP (PerkinElmer) to a final concentration of […]. Reactions were carried out at 25° C. for 120 min, followed by spotting of the reactions onto P81 ion exchange filter paper (Whatman). Unbound phosphate was removed by extensive washing of filters in 0.75% phosphoric acid. […] IC50 values and curve fits were obtained using Prism (GraphPad Software).

FLT3 = biological target: T2, FLT3 (Homo sapiens, UniProt P36888); test: HotSpot kinase assay, FLT3; format: biochemical; conditions: HotSpot radiometric 33P ATP assay, 25° C., 120 min
T2 construct: purchased Reaction Biology Corporation
T2 sequence (P36888 27-993): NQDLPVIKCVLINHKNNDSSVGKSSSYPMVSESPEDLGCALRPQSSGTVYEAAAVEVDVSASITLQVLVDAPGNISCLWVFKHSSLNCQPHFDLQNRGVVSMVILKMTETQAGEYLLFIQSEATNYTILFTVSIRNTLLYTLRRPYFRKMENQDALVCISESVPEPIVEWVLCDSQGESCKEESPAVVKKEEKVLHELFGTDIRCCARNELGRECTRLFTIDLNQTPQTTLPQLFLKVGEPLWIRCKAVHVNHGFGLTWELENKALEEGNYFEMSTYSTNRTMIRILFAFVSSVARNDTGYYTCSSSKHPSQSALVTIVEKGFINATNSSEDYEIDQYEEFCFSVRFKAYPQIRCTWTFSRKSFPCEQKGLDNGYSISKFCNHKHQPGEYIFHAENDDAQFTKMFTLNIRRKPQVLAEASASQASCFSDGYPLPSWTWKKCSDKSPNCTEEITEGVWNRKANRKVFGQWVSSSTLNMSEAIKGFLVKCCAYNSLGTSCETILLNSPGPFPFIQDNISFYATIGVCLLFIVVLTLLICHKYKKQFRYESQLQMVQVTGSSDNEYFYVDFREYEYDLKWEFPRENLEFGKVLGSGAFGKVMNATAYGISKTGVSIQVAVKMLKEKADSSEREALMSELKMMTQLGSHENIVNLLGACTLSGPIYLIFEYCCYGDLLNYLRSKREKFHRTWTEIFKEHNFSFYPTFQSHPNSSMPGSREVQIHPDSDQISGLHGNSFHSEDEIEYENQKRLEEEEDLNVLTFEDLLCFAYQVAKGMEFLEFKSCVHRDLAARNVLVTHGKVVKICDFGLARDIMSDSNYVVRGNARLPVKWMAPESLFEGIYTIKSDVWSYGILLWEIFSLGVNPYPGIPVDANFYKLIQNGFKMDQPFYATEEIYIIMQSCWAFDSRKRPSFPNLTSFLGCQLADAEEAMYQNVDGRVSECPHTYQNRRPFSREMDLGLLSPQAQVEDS
Method: as §1, §2

T1 sequence (Q14680 whole entry): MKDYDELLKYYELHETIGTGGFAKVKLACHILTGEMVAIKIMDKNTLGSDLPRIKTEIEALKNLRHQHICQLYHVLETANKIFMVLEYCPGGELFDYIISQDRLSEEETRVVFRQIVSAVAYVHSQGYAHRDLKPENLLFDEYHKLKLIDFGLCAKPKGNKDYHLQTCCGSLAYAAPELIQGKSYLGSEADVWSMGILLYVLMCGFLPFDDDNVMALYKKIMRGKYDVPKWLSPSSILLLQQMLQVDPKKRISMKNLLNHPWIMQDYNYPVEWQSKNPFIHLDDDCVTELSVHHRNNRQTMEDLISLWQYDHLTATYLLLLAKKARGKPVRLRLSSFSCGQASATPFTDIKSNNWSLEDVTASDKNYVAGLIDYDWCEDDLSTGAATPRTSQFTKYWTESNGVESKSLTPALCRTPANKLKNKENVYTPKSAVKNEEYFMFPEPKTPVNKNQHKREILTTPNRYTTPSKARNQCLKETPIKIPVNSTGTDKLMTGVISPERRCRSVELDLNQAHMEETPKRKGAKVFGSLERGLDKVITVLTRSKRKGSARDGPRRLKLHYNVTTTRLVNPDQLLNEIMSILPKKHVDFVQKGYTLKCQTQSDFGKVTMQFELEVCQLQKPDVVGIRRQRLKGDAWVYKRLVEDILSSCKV

Row | Compound | IC50 (MELK) [nM] | IC50 (FLT3) [nM]
1 | N[C@H]1CC[C@@H](COc2cncnc2-c2cnn(-c3c(F)cccc3F)c2)CC1 [Compound I-1, (1s,4s)-4-(((4-(1-(2,6-difluorophenyl)-1H-pyrazol-4-yl)pyrimidin-5-yl)oxy)methyl)cyclo-hexan-1-amine] | < 200 | < 200
2 | N[C@H]1CC[C@@H](COc2cncnc2-c2cnn(-c3ccccc3C(F)(F)F)c2)CC1 [Compound I-2, (1s,4s)-4-(((4-(1-(2-(trifluoromethyl)phen-yl)-1H-pyrazol-4-yl)pyrimidin-5-yl)oxy)methyl)cyclo-hexan-1-amine] | > 1000 | 200 to 1000
3 | N[C@H]1CC[C@@H](COc2cncnc2-c2cnn(-c3ccccc3OC(F)(F)F)c2)CC1 [Compound I-3, (1s,4s)-4-(((4-(1-(2-(trifluoromethoxy)phen-yl)-1H-pyrazol-4-yl)pyrimidin-5-yl)oxy)methyl)cyclo-hexan-1-amine] | 200 to 1000 | 200 to 1000
4 | N#Cc1ccccc1-n1cc(-c2ncncc2OC[C@H]2CC[C@@H](N)CC2)cn1 [Compound I-4, 2-(4-(5-(((1s,4s)-4-aminocyclohexyl)meth-oxy)pyrimidin-4-yl)-1H-pyrazol-1-yl)benzonitrile] | 200 to 1000 | < 200
5 | COc1ccccc1-n1cc(-c2ncncc2OC[C@H]2CC[C@@H](N)CC2)cn1 [Compound I-5, (1s,4s)-4-(((4-(1-(2-methoxyphenyl)-1H-pyrazol-4-yl)pyrimidin-5-yl)oxy)methyl)cyclo-hexan-1-amine] | < 200 | < 200
6 | N[C@@H]1CC[C@H](COc2cncnc2-c2cnn(-c3ccccc3F)c2)C1 [Compound I-6, (1R,3S)-3-(((4-(1-(2-fluorophenyl)-1H-pyrazol-4-yl)pyrimidin-5-yl)oxy)methyl)cyclo-pentan-1-amine] | 200 to 1000 | 200 to 1000
7 | CN(C)[C@@H]1CC[C@H](COc2cncnc2-c2cnn(-c3ccccc3F)c2)C1 [Compound I-7, (1R,3S)-3-(((4-(1-(2-fluorophenyl)-1H-pyrazol-4-yl)pyrimidin-5-yl)oxy)methyl)-N,N-dimethylcyclopentan-1-amine] | 200 to 1000 | 200 to 1000
8 | CN(C)C[C@@H]1CC[C@H](COc2cncnc2-c2cnn(-c3ccccc3F)c2)C1 [Compound I-8, 1-((1R,3S)-3-(((4-(1-(2-fluorophenyl)-1H-pyrazol-4-yl)pyrimidin-5-yl)oxy)methyl)cyclo-pentyl)-N,N-dimethylmethanamine] | < 200 | < 200
9 | CN(C)[C@H]1CC[C@@H](COc2cncnc2-c2cnn(-c3ccccc3F)c2)CC1 [Compound I-9, (1s,4s)-4-(((4-(1-(2-fluorophenyl)-1H-pyrazol-4-yl)pyrimidin-5-yl)oxy)methyl)-N,N-dimethylcyclohexan-1-amine] | 200 to 1000 | < 200
10 | NC1CCN(c2cncnc2-c2cnn(-c3ccccc3F)c2)CC1 [Compound I-10, 1-(4-(1-(2-fluorophenyl)-1H-pyrazol-4-yl)pyrimidin-5-yl)piperidin-4-amine] | > 1000 | 200 to 1000
11 | N[C@H]1CC[C@@H](CNc2cncnc2-c2cnn(-c3ccccc3F)c2)CC1 [Compound I-11, N-(((1s,4s)-4-aminocyclohexyl)meth-yl)-4-(1-(2-fluorophenyl)-1H-pyrazol-4-yl)pyrimidin-5-amine] | > 1000 | 200 to 1000
12 | N[C@H]1CC[C@@H](CNc2cncnc2-c2cnn(-c3c(F)cccc3F)c2)CC1 [Compound I-12, N-(((1s, 4s)-4-aminocyclohexyl)methyl)-4-(1-(2,6-difluorophenyl)-1H-pyrazol-4-yl)-pyrimidin-5-amine trifluoroacetate] | > 1000 | 200 to 1000

Other lines, results leading:

Row | IC50 (MELK) [nM] | IC50 (FLT3) [nM] | Compound
13 | > 1000 | > 1000 | N[C@@H]1CC[C@@H]1COc1cncnc1-c1cnn(-c2ccccc2F)c1 [Compound I-13, (1R,2S)-2-(((4-(1-(2-fluorophenyl)-1H-pyrazol-4-yl)pyrimidin-5-yl)oxy)methyl)cyclo-butan-1-amine]
14 | > 1000 | 200 to 1000 | Cc1cccc(F)c1-n1cc(-c2ncncc2OC[C@H]2CC[C@@H](N)CC2)cn1 [Compound I-14, (1s,4s)-4-(((4-(1-(2-fluoro-6-methylphenyl)-1H-pyrazol-4-yl)pyrimidin-5-yl)oxy)methyl)cyclo-hexan-1-amine]
15 | 200 to 1000 | < 200 | CC(C)N[C@H]1CC[C@@H](COc2cncnc2-c2cnn(-c3ccccc3F)c2)CC1 [Compound I-15, (1s,4s)-4-(((4-(1-(2-fluorophenyl)-1H-pyrazol-4-yl)pyrimidin-5-yl)oxy)methyl)-N-isopropylcyclohexan-1-amine]
16 | > 1000 | > 1000 | CC(C)N1CCC(COc2cncnc2-c2cnn(-c3ccccc3F)c2)CC1 [Compound I-16, 4-(1-(2-fluorophenyl)-1H-pyrazol-4-yl)-5-((1-isopropylpiperidin-4-yl)methoxy)pyrim-idine]
17 | 200 to 1000 | 200 to 1000 | CC(Oc1cncnc1-c1cnn(-c2ccccc2F)c1)[C@H]1CC[C@@H](N)CC1 (stereo partly drawn) [Compound I-17, (1S,4s)-4-((R)-1-((4-(1-(2-fluorophenyl)-1H-pyrazol-4-yl)pyrimidin-5-yl)oxy)ethyl)cyclo-hexan-1-amine]
18 | > 1000 | 200 to 1000 | Cc1cccc(F)c1-n1cc(-c2ncncc2OC[C@H]2CCC[C@@H](N)C2)cn1 [Compound I-18, (1R,3S)-3-(((4-(1-(2-fluoro-6-methylphenyl)-1H-pyrazol-4-yl)pyrimidin-5-yl)oxy)methyl)cyclo-hexan-1-amine]
19 | < 200 | < 200 | N[C@H]1CC[C@@H](CCOc2cncnc2-c2cnn(-c3ccccc3F)c2)CC1 [Compound I-19, (1s,4s)-4-(2-((4-(1-(2-fluorophenyl)-1H-pyrazol-4-yl)pyrimidin-5-yl)oxy)ethyl)cyclo-hexan-1-amine]
20 | > 1000 | 200 to 1000 | N[C@H]1CC[C@@H](COc2cncnc2-c2cnn(-c3cc(F)cc(F)c3)c2)CC1 [Compound I-20, (1s,4s)-4-(((4-(1-(3,5-difluorophenyl)-1H-pyrazol-4-yl)pyrimidin-5-yl)oxy)methyl)cyclo-hexan-1-amine]
21 | < 200 | < 200 | N[C@H]1CC[C@@H](COc2cncnc2-c2cnn(-c3ccc(O)c(F)c3)c2)CC1 [Compound I-21, 4-(4-(5-(((1s,4s)-4-aminocyclohexyl)meth-oxy)pyrimidin-4-yl)-1H-pyrazol-1-yl)-2-fluorophenol]
22 | < 200 | < 200 | COc1ccc(-n2cc(-c3ncncc3OC[C@H]3CC[C@@H](N)CC3)cn2)cc1F [Compound I-22, (1s,4s)-4-(((4-(1-(3-fluoro-4-methoxyphenyl)-1H-pyrazol-4-yl)pyrimidin-5-yl)oxy)methyl)cyclo-hexan-1-amine]
23 | < 200 | < 200 | Fc1ccccc1-n1cc(-c2ncncc2OCC2CCNCC2)cn1 [Compound I-23, 4-(1-(2-fluorophenyl)-1H-pyrazol-4-yl)-5-(piperidin-4-ylmethoxy)pyrim-idine]
24 | > 1000 | > 1000 | Fc1ccccc1-n1cc(-c2ncncc2NCC2CCNCC2)cn1 [Compound I-24, 4-(1-(2-fluorophenyl)-1H-pyrazol-4-yl)-N-(piperidin-4-ylmethyl)pyrimidin-5-amine]
25 | < 200 | < 200 | N[C@H]1CC[C@@H](COc2cncnc2-c2cnn(-c3ccccc3F)c2)CC1 [Compound I-25, (1s,4s)-4-(((4-(1-(2-fluorophenyl)-1H-pyrazol-4-yl)pyrimidin-5-yl)oxy)methyl)cyclo-hexan-1-amine]
26 | < 200 | < 200 | N[C@H]1CC[C@H](COc2cncnc2-c2cnn(-c3ccccc3F)c2)CC1 [Compound I-26, (1r,4r)-4-(((4-(1-(2-fluorophenyl)-1H-pyrazol-4-yl)pyrimidin-5-yl)oxy)methyl)cyclo-hexan-1-amine]
